Results from patent publication US7691860B2, “Sulfonamide derivatives” (Banyu Pharmaceutical Co., Ltd., priority 2004, dated 2010).

Target: T1, human NPY Y5 receptor (Homo sapiens, UniProt Q15761)
T1 construct: expressed in transfected cells; host or cells: COS-7, CHO and LM(tk-)
T1 sequence (Q15761 1-445): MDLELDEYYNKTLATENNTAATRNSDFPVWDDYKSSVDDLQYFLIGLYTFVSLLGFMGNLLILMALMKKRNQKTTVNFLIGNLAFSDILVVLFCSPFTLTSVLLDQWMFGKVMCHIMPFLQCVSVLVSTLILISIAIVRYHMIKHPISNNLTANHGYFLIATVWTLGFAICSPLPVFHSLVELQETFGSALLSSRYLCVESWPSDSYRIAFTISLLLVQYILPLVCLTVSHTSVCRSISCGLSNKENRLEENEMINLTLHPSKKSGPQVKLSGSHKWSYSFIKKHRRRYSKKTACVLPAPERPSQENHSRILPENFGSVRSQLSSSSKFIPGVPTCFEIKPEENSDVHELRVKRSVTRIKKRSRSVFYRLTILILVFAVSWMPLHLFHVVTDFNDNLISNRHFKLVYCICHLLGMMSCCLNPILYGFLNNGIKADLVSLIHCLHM
Assay: NPY binding inhibition test ([125I]peptide YY binding to membranes of NPY Y5 receptor expressing cells)
Details: membrane sample of NPY Y5 receptor expressed cells, 25° C., 2 hours, read-out: IC50 against specific peptide YY binding
Text: The cDNA sequence (refer to the specification of WO 96/16542) encoding human NPY Y5 receptor was cloned into the expression vectors, pcDNA3, pRc/RSV (supplied by Invitrogen Co.) and pCI-neo (supplied by Promega Co.). The resultant expression vectors were transfected into the host cells, COS-7, CHO and LM(tk−) (American Type Culture Collection) using the cationic lipid method (refer to Proceedings of the National Academy of Sciences of the United States of America, vol. 84, pp. 7413 (1987)) to give NPY Y5 receptor expression cells. A membrane sample prepared from the NPY Y5 receptor expressed cells was incubated together with a test compound and 20,000 cpm of [^125I]peptide YY (supplied by NEN Co.) in an assay buffer (25 mM Tris buffer, pH 7.4, containing 10 mM of magnesium chloride, 1 mM of phenylmethylsulfonyl fluoride, 0.1% bacitracin and 0.5% bovine serum albumin) at 25° C. for 2 hours, followed by filtration through glassfilter GF/C. After washing with 5 mM Tris buffer (pH7.4) containing 0.3% BSA, radioactivity of the cake on the filter was measured. Non-specific binding was measured in the presence of 1 μM of peptide YY, and a 50% Inhibition Concentration (IC50 value) of the test compound against specific peptide YY binding was determined (refer to Endocrinology, vol. 131, pp. 2090 (1992)).

| Structure (SMILES) | IC50 |
| --- | --- |
| CC(C)(C)S(=O)(=O)N[C@H]1CC[C@H](c2nc3nc(-c4ccc(F)cc4)ncc3[nH]2)CC1 [Example 7, 8-(trans-4-tert-butylsulfonylamino-cyclohexyl)-2-(4-fluorophenyl)purine] | 1.2 nM |
| CC(C)(C)S(=O)(=O)N[C@H]1CC[C@H](c2nc3nc(-c4ccccc4)ncc3[nH]2)CC1 [Example 9, 8-(trans-4-tert-butylsulfonylamino-cyclohexyl)-2-phenylpurine] | 1.6 nM |
| CS(=O)(=O)Nc1ccccc1N1CCN(c2nc3nc(-c4ccccc4)ncc3[nH]2)CC1 [Example 22, 8-{1-(2-methylsulfonylaminophenyl)piperazin-4-yl}-2-phenylpurine] | 1.7 nM |

Other lines, results leading:

| IC50 | Structure (SMILES) |
| --- | --- |
| 0.67 nM | CC(C)(C)S(=O)(=O)N[C@H]1CC[C@H](c2nc3ccc(-c4ccccc4)cc3[nH]2)CC1 [Example 3, 2-(trans-4-tert-butylsulfonylamino-cyclohexyl)-5-phenylbenzimidazole] |
| 1.4 nM | CC(C)(C)S(=O)(=O)N[C@H]1CC[C@H](c2nc3nc(-c4ccccc4F)ccc3[nH]2)CC1 [Example 4, 2-(trans-4-tert-butylsulfonylamino-cyclohexyl)-5-(2-fluorophenyl)imidazo[4,5-b]pyridine] |
| 1.5 nM | CC(C)(C)S(=O)(=O)NC1CCN(c2nc3ccc(-c4ccccc4)cc3[nH]2)CC1 [Example 17, 2-(4-tert-butylsulfonylaminopiperidin-1-yl)-5-phenylbenzimidazole] |
